Patent US10351530B2, “Arylcyclohexyl pyrazoles as NRF2 regulators” (GlaxoSmithKline Intellectual Property Development Limited, priority 2015, dated 2019)
pEC50, pIC50: −log10 of the molar value. Counter-ions that a name gives are not always drawn.

Legend:
NRF2/Keap1 = biological target: T1, NRF2/Keap1 (Homo sapiens, UniProt Q14145); assay: NRF2-Keap1 TR-FRET Low Protein Assay (full length NRF2 and full length Keap1); assay type: binding; settings: low protein: 1.25 nM Keap1 FlagHis, 2.5 nM biotin-NRF2 added
T1 construct: full length NRF2 protein and full length Keap1 protein (Keap1 exists a dimer) are used
T1 sequence (Q14145 whole entry): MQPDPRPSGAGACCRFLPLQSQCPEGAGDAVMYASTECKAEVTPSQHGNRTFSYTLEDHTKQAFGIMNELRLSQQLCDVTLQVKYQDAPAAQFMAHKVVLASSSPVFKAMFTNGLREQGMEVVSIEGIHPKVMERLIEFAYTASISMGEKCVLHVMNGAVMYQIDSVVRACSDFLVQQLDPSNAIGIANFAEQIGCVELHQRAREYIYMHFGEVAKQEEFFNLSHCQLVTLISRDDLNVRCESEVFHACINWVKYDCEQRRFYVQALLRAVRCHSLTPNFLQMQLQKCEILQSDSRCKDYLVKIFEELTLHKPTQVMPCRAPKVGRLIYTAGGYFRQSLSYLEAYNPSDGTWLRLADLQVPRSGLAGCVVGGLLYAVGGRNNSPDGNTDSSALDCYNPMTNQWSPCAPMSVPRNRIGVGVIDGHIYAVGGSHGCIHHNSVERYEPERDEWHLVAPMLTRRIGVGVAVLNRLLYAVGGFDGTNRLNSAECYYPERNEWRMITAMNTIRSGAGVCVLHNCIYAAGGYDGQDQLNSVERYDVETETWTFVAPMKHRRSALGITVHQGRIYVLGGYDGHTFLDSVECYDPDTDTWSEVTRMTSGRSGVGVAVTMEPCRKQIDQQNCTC
Excerpt: In the NRF2-Keap1 TR-FRET (time-resolved fluorescence resonance energy transfer) low protein assay, full length NRF2 protein and full length Keap1 protein (Keap1 exists a dimer) are used. The assay detects a compound's ability to displace the binding of Keap1 FlagHis with biotinylated Avi-NRF2 protein. Biotin-NRF2 binds to streptavidin-europium (a component of the detection mix) and Keap1 FlagHis is recognized by anti-Flag APC (allophycocyanin) antibody (also a component of the detection mix). If binding occurs between the two proteins, there will be an energy transfer from the Eu+3 (donor) at 615 nm to the APC (acceptor) at 665 nm. A potential NRF2 inhibitor will cause a reduction in the TR-FRET signal by interfering with the binding of Keap1 to NRF2.
Ten nanoliters of 100× compound dose response curves (serial 3-fold dilutions) in DMSO are stamped using an Echo liquid handling system (Labcyte) into 384-well, low volume, black assay plates (Greiner, #784076), with DMSO in columns 6 and 18. An additional 90 nl DMSO is added to each well, to bring the total volume to 100 nl per well. The top concentration of compound is located in columns 1 and 13, with the serial dilutions going across the row. All reagents are diluted in assay buffer (50 mM Tris, pH 8.0, 5 mM MgCl2, 100 mM NaCl, 0.005% BSA, 1 mM DTT, and 2 mM CHAPS. The BSA, DTT, and CHAPS are added to the assay buffer on the day of assay. Using a Multidrop Combi (Thermo Electron Corporation) equipped with a metal tip dispenser, 5 ul of 1.25 nM Keap1 FlagHis protein is added to all wells of the compound plate, with the exception of the wells in column 18. Wells in column 18 receive 5 ul of assay buffer instead. Plates are centrifuged at 500 rpm for 1 minute, covered with a plate lid, and incubated at 37° C. for 2.25 hours. Plates are then removed from the incubator and allowed to cool to RT for 15 minutes. Five microliters of 2.5 nM biotin-NRF2 protein is then added to all wells of the plates and the plates are spun at 500 rpm for 1 minute, followed by incubating at 4° C. for 1.25 hours. The plates are then allowed to warm to RT for 15 minutes, followed by the addition of 10 ul of detection mix (1 nM Streptavidin Eu+ W1024 and 5 ug/ml mouse anti-DYKDDDDK IgG conjugated to SureLight APC antibody; both from Columbia Biosciences) to all wells. Plates are spun at 500 rpm for 1 minute, incubated for 1 hour at RT, and read on an Envision plate reader using a 320 nm excitation filter and 615 nm and 665 nm emission filters. Compound response (% inhibition) and potency (pIC50) are calculated based on the ratio of the two emissions (665 nm/615 nm) and then the transformed data is normalized against controls in the assay (control 1=1% DMSO in the presence of NRF2 and Keap1 protein and control 2=1% DMSO in the presence of only the NRF2 protein). Data analysis is handled using the software package Abase XE (Surrey, United Kingdom). The % inhibition values are calculated from the ratio (transformed) data by the equation: 100−(100*(compound response-average control 2)/(average control 1−average control 2)). For calculation of pIC50s, Abase XE uses a four parameter equation.

[1] = tested on: NQO1 specific enzyme activity in BEAS-2B cells; assay: BEAS-2B NQO1 MTT Assay; assay type: cell-based; settings: Homo sapiens, BEAS-2B, 48 h, NQO1 specific activity induction
Excerpt: NAD(P)H:quinone oxidoreductase 1 (NQO1), also called DT diaphorase, is a homodimeric FAD-containing enzyme that catalyzes obligatory NAD(P)H-dependent two-electron reductions of quinones and protects cells against the toxic and neoplastic effects of free radicals and reactive oxygen species arising from one-electron reductions. The transcription of NQO1 is finely regulated by NRF2, and thus NQO1 activity is a good marker for NRF2 activation. On day one, frozen BEAS-2B cells (ATCC) are thawed in a water bath, counted, and re-suspended at a concentration of 250,000 cells/mL. Fifty microliters of cells are plated in 384 well black clear-bottomed plates. Plates are incubated at 37° C., 5% CO2 overnight. On day two, plates are centrifuged and 50 nL of compound or controls are added to the cells. Plates are then incubated at 37° C., 5% CO2 for 48 hours. On day four, medium is aspirated from the plate and crude cell lysates are made by adding 13 uL of 1× Cell Signaling Technologies lysis buffer with 1 Complete, Mini, EDTA-free Protease Inhibitor Tablet (Roche) for each 10 mL of lysis buffer. After lysis plates are incubated for 20 minutes at room temperature. Two microliters of lysate are removed for use in Cell Titer Glo assay (Promega) and MTT cocktail is prepared (Prochaska et. al. 1998) for measurement of NQO1 activity. Fifty microliters of MTT cocktail is added to each well, plate is centrifuged, and analyzed on an Envision plate reader (Perkin Elmer) using Absorbance 570 nm label for 30 minutes. Product formation is measured kinetically and the pEC50 of NQO1 specific activity induction is calculated by plotting the change in absorbance (Delta OD/min) versus the log of compound concentration followed by 3-parameter fitting.

Keap1/NRF2 = biological target: T2, Keap1/NRF2 (Homo sapiens, UniProt Q14145); assay: NRF2-Keap1 FP Assay (Kelch domain (321-609) of Keap1, TAMRA-labeled NRF2 ETGE peptide); assay type: binding; settings: Keap1 (321-609) 20 nM, Tamra labeled peptide 8 nM
T2 construct: Keap1 (321-609) is diluted to 40 nM (2×) in 1× assay buffer
T2 sequence (Q14145 321-609): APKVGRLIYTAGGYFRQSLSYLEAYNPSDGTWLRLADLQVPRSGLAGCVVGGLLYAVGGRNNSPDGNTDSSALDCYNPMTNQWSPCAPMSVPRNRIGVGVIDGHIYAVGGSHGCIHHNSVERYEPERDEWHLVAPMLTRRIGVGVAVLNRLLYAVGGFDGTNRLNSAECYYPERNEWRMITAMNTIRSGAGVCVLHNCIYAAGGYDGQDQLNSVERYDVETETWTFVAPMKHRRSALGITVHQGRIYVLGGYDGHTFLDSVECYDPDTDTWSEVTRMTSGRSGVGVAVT
Excerpt: One model for the NRF2-Keap1 interaction is through two binding sites in the Neh2 domain on NRF2. The two sites are referred to as the DLG binding motif (latch domain, uM affinity) and the ETGE binding motif (hinge domain, nM affinity). The Keap1 protein consists of an N-terminal region (NTR), a broad complex, tramtrack, and brick a′ brac domain (BTB), an intervening region (IVR), a double glycine repeat domain (DGR or Kelch), and a C-terminal region. The DLG and ETGE motifs of NRF2's Neh2 domain bind to the Kelch domain of Keap1 at different affinities. In the Keap1 Kelch fluorescence polarization (FP) assay, a TAMRA-labeled 16 mer peptide (AFFAQLQLDEETGEFL) containing the ETGE motif of NRF2 and the Kelch domain (321-609) of Keap1 is used. The assay determines if a compound interferes with the binding between Keap1 […] and the TAMRA-labeled peptide. Binding of TAMRA-labeled NRF2 peptide to Keap1 (321-609) results in a high FP signal. If a compound interferes with the binding between the peptide and the protein, it will cause the assay signal to decrease. Thus, assay signal is inversely proportional to binding inhibition.
100 nl of 100× compound dose response curves (serial 3-fold dilutions) in DMSO are stamped using an Echo liquid handling system (Labcyte) into 384-well low volume black assay plates (Greiner, #784076), with DMSO in columns 6 and 18. The top concentration of compound is located in columns 1 and 13. Keap1 (321-609) is diluted to 40 nM (2×) in 1× assay buffer (50 mM Tris, pH 8.0, 100 mM NaCl, 5 mM MgCl2, 1 mM DTT, 2 mM CHAPS, and 0.005% BSA) and 5 ul is added using a Multidrop Combi (Thermo Electron Corporation) equipped with a metal tip dispenser to all wells of the compound plate, except column 18. Column 18 receives only 5 ul of assay buffer. Immediately, 5 uL of 16 nM (2×) of Tamra labeled peptide (AFFAQLQLDEETGEFL, 21st Century Biochemicals) is added to all wells of the plate. The plates are spun at 500 rpm for 1 min, incubated for 1 hr at room temperature, and read on an Analyst GT (Molecular Devices) equipped with excitation (530/25 nm) and emission (580/10 nm) filters designed for Tamra probes. A 561 nm dichroic mirror is also used in the Analyst. The final assay concentrations of Keap1 (321-609) and Tamra labeled peptide are 20 nM and 8 nM, respectively. Fluorescence measurements, represented as mP, are used in the transformation of the data. Compound activity is calculated based on percent inhibition, normalized against controls in the assay (Control 1 contains the Tamra peptide and Keap1 (321-609) together (0% response) and control 2 contains the Tamra peptide alone (100% response)). Data analysis is handled using the software package Abase XE (Surrey, United Kingdom. The % inhibition values are calculated by the equation: 100−(100*((compound response-average control 2)/(average control 1−average control 2))). For calculation of pIC50s, Abase XE uses a four parameter equation.

`CC(C)(C)OC(=O)N1CCCC(c2cccc(-n3ncc(C(=O)O)c3C3CC3)c2)C1` (stereo not drawn) [Example 27, 1-(3-(1-(tert-Butoxycarbonyl)piperidin-3-yl)phenyl)-5-cyclopropyl-1H-pyrazole-4-carboxylic Acid] was tested. Which pIC50 (NRF2/Keap1) did it give?
The pIC50 was 5.00 to 6.00.

And the pEC50 [1]?
The pEC50 was 5.00 to 6.00.

And the pIC50 (Keap1/NRF2)?
The pIC50 was < 5.00.

Which results are given for `Cn1cc([C@@H]2C[C@H]2c2c(C(=O)O)cnn2-c2cccc(N3CCC[C@@H](CCC4CCCCC4)C3)c2)nn1` [Example 36d, 1-(3-((R)-3-(2-cyclohexylethyl)piperidin-1-yl)phenyl)-5-((1R,2R)-2-(1-methyl-1H-1,2,3-triazol-4-yl)cyclopropyl)-1H-pyrazole-4-carboxylic Acid]?
pIC50 (NRF2/Keap1): 7.00 to 8.00; pEC50 [1]: 8.00 to 9.00; pIC50 (Keap1/NRF2): 7.00 to 8.00

`Cn1cc([C@@H]2C[C@H]2c2c(C(=O)O)cnn2-c2cccc(N3CCC[C@@H](OCC4CCCCC4)C3)c2)nn1` [Example 43, 1-(3-((R)-3-(Cyclohexylmethoxy)piperidin-1-yl)phenyl)-5-((1R,2R)-2-(1-methyl-1H-1,2,3-triazol-4-yl)cyclopropyl)-1H-pyrazole-4-carboxylic Acid] was tested. Which pIC50 (NRF2/Keap1) did it give?
Its pIC50 is 7.00 to 8.00.

And the pEC50 [1]?
The pEC50 was 6.00 to 7.00.

What about the pIC50 (Keap1/NRF2) of the same compound?
The pIC50 was 6.00 to 7.00.

Which results are given for `Cn1cc([C@@H]2C[C@H]2c2c(C(=O)O)cnn2-c2cccc(C3CCCN(S(=O)(=O)c4ccccc4)C3)c2)nn1` (stereo partly drawn) [Example 30, 5-((1R,2R)-2-(1-methyl-1H-1,2,3-triazol-4-yl)cyclopropyl)-1-(3-(1-(phenylsulfonyl)piperidin-3-yl)phenyl)-1H-pyrazole-4-carboxylic Acid]?
pIC50 (NRF2/Keap1): > 8.00; pEC50 [1]: 5.00 to 6.00; pIC50 (Keap1/NRF2): 7.00 to 8.00

With `Cn1cc([C@@H]2C[C@H]2c2c(C(=O)O)cnn2-c2cccc(N3CCCC(CCC4CCCCC4)C3)c2)nn1` (stereo partly drawn) [Example 35, 1-(3-(3-(2-cyclohexylethyl)piperidin-1-yl)phenyl)-5-((1R,2R)-2-(1-methyl-1H-1,2,3-triazol-4-yl)cyclopropyl)-1H-pyrazole-4-carboxylic Acid] as the compound, how does the pIC50 (NRF2/Keap1) read?
The pIC50 was 7.00 to 8.00.

What about the pEC50 [1] of the same compound?
Its pEC50 is 8.00 to 9.00.

And the pIC50 (Keap1/NRF2)?
The pIC50 was 7.00 to 8.00.

What does the source list for `Cn1cc([C@@H]2C[C@H]2c2c(C(=O)O)cnn2-c2cccc(C3CCCN(C(=O)CC4CCCCC4)C3)c2)nn1` (stereo partly drawn) [Example 31, 1-(3-(1-(2-cyclohexylacetyl)piperidin-3-yl)phenyl)-5-((1R,2R)-2-(1-methyl-1H-1,2,3-triazol-4-yl)cyclopropyl)-1H-pyrazole-4-carboxylic Acid]?
pIC50 (NRF2/Keap1): 7.00 to 8.00; pEC50 [1]: 6.00 to 7.00; pIC50 (Keap1/NRF2): 6.00 to 7.00

Which results are given for `Cn1cc([C@@H]2C[C@H]2c2c(C(=O)O)cnn2-c2cccc(C3CCCN(C(=O)c4ccccc4)C3)c2)nn1` (stereo partly drawn) [Example 33, 1-(3-(1-benzoylpiperidin-3-yl)phenyl)-5-((1R,2R)-2-(1-methyl-1H-1,2,3-triazol-4-yl)cyclopropyl)-1H-pyrazole-4-carboxylic Acid]?
pIC50 (NRF2/Keap1): 7.00 to 8.00; pEC50 [1]: 5.00 to 6.00; pIC50 (Keap1/NRF2): 6.00 to 7.00

With `CCC[C@@H]1CCCCN1C(=O)N1CCCC(c2cccc(-n3ncc(C(=O)O)c3[C@@H]3C[C@H]3c3cn(C)nn3)c2)C1` (stereo partly drawn) [Example 34, 5-((1R,2R)-2-(1-Methyl-1H-1,2,3-triazol-4-yl)cyclopropyl)-1-(3-(1-((R)-2-propylpiperidine-1-carbonyl)piperidin-3-yl)phenyl)-1H-pyrazole-4-carboxylic Acid] as the compound, how does the pIC50 (NRF2/Keap1) read?
Its pIC50 is 7.00 to 8.00.

What about the pEC50 [1] of the same compound?
Its pEC50 is 5.00 to 6.00.

What about the pIC50 (Keap1/NRF2) of the same compound?
The pIC50 was 6.00 to 7.00.

How did the pIC50 (NRF2/Keap1) turn out when `O=C(O)c1cnn(-c2cccc(C3CCCN(CC4CCCCC4)C3)c2)c1C1CC1` (stereo not drawn) [Example 28, 1-(3-(1-(cyclohexylmethyl)piperidin-3-yl)phenyl)-5-cyclopropyl-1H-pyrazole-4-carboxylic Acid, Hydrochloride] was run?
Its pIC50 is 5.00 to 6.00.

And the pEC50 [1]?
The pEC50 was 5.00 to 6.00.

What about the pIC50 (Keap1/NRF2) of the same compound?
The pIC50 was < 5.00.

What does the source list for `Cn1cc([C@@H]2C[C@H]2c2c(C(=O)O)cnn2-c2cccc(N3CCC[C@H](CCC4CCCCC4)C3)c2)nn1` [Example 36c, 1-(3-((S)-3-(2-Cyclohexylethyl)piperidin-1-yl)phenyl)-5-((1R,2R)-2-(1-methyl-1H-1,2,3-triazol-4-yl)cyclopropyl)-1H-pyrazole-4-carboxylic Acid]?
pIC50 (NRF2/Keap1): 7.00 to 8.00; pEC50 [1]: 7.00 to 8.00; pIC50 (Keap1/NRF2): 7.00 to 8.00
